Measured values reported in patent publication US20160291027A1, “METHODS FOR […] ABILITY OF A Z[…] COMPOUND TO TREAT CANCER” (Eisai R&D Management Co., Ltd., priority 2007, published 2016).

What was measured:
[1] = system: DBTRG-05MG human glioblastoma xenografts; experiment: Subcutaneous DBTRG-05MG glioblastoma xenograft model; format: in vivo, mice
Description: The purpose of this study was to investigate anticancer activity of Compound 106 in a human DBTRG-05MG glioblastoma xenograft model. DBTRG-05MG human glioblastoma cancer cells, which carry the BRAF (V600E) mutation, were grown in monolayer cultures in ATCC-recommended growth media at 37° C. in a 5% CO2 humidified incubator. Cells were expanded in T225 flasks for the in vivo study. On the day of injection, growth medium was removed, flasks were washed with PBS, and cells were collected by trypsinization. The cells were washed and collected by centrifugation, and resuspended in ice-cold PBS.
Female athymic NU/NU mice (6 week old, Charles River Laboratories (Wilmington, Mass.)) were inoculated subcutaneously (s.c.) with 5×10^6 DBTRG-05MG human glioblastoma cancer cells. Those animals that developed tumors of approximately 150 mm^3 were selected and randomized into five groups.
The study consisted of a vehicle-treated group and four drug-treated groups of 8 mice per group for a total of 40 mice on the first day of treatment. All treatments were initiated on day 21. Compound 106 was administered intravenously (i.v.) on a Q4D×3 (days 21, 25, and 29) dosing schedule at dosages of 5, 10, 20 and 40 mg/kg with a volume of injection of 0.1 mL per 10 g body weight (Q4D×3=every four days for a total of three injections). The control group was treated with vehicle alone (20% Captisol in water; Captisol® (Sulfobutyl Ether Beta Cycolodextrin, Sodium Salt; Cydex, Inc., KS)).
General health of the mice was monitored and mortality was recorded daily. Tumor dimensions and animal body weights were recorded twice a week starting on the first day of treatment. The s.c. tumor volumes were measured and animals were weighed twice weekly starting with the first day of treatment. Tumor volume was determined by caliper measurement (mm) and using the following formula: […]
The study was terminated 60 days after cancer cell transplantation. […]

[2] = system: wildtype xenograft models (pancreatic cell lines); experiment: Other xenograft models, wildtype; format: in vivo, mice; settings: 40 mg/kg i.v. QD×5 for 2 weeks
Description: Additionally, one, five, and seven out of eight animals in the groups treated with Compound 106 at doses of 10, 20, or 40 mg/kg, respectively, were tumor-free at the end of the study on day 59. […] Compound 106 was also tested in other xenograft models, in which BRAF-mutated cells, including breast, colon, and melanoma cell lines, or wildtype cells, including pancreatic cell lines, were transplanted subcutaneously into female nude mice. Compound 106 or a vehicle control was administered intravenously.

AU-565 = experiment: Western blotting of response markers; format: cell-based; settings: resistant cell line AU-565; 24 hours; concentration dependent
Description: (§1) In order to identify markers that could serve as response markers for determining whether a cancer in a subject is sensitive to treatment with a zearalenone analog compound, phospho-ERK, total ERK protein, phospho-pRB, total pRB, and Cyclin D1 protein levels in a cell line sensitive to Compound 106 (e.g., SK-MEL-28) and cell lines resistant to Compound 106 (e.g., AU-565) were examined by Western blotting. 2×10^6 cancer cells (SK-MEL-28 and AU-565) were plated into a 100 mm dish and incubated for two days. Test compound, e.g., Compound 106, was then added to each dish for 24 hours at a concentration ranging from […] to […]. Culture medium was added to the cells as a control. SK-MEL-28 and AU-565 cell lysate proteins were subjected to SDS-PAGE under reducing condition and immunoblotted with an antibody against phospho-ERK1/2 (catalog #9101, Cell Signaling Technology®, Danvers, Mass.), phospho-pRB (catalog #9307, Cell Signaling Technology®, Danvers, Mass.), or Cyclin D1 (catalog #sc-8396, Santa Cruz, Calif.). ERK1 (catalog #sc-93, Santa Cruz, Calif.) or pRb (catalog #sc-102, Santa Cruz, Calif.) antibody was used for the detection of the total amount of protein.

SK-MEL-28 = experiment: Western blotting of response markers; format: cell-based; settings: sensitive cell line SK-MEL-28, 24 hours
Description: as §1

RPMI-7951 = experiment: CellTiter-Glo cell growth assay; format: cell-based; settings: RPMI-7951, BRAF mutated melanoma, elevated pAKT; 10 μmol/L to 0.0003 μmol/L
Description: In order to determine whether Compound 106 resistance is associated with constitutive AKT phosphorylation as a result of activation of the PI3K signaling pathway, a panel of 10 BRAF mutated melanoma cell lines and a BRAF wild-type glioblastoma cancer cell line, SF-295, were tested using different concentrations of Compound 106 ranging from 10 μmol/L to 0.0003 μmol/L.
All assays were performed in a 96 well format. For these cell lines, protein lysates were collected in a separate experiment, which allowed for the evaluation of the constitutive level of AKT phosphorylation and correlation between the level of phosphorylated AKT (pAKT) and Compound 106 sensitivity. Cell growth was assessed using CellTiter-Glo® Luminescent Cell Viability Assay (Promega). Phosphorylated AKT protein was analyzed by Western blotting, with total AKT being used as a loading control.

CCNc1cc(O)c2c(c1)/C=C/C[C@H](O)[C@H](O)C(=O)/C=C\[C@@H](C)[C@H](C)OC2=O [Compound 106]
Tumor-free animals on day 60 ([1]; 5 mg/kg i.v. Q4D×3): One out of eight | Tumor-free animals on day 60 ([1]; 20 mg/kg i.v. Q4D×3): One out of eight | Anticancer activity (tumor volume vs. control group) ([1]; 5, 10, 20, and 40 mg/kg i.v. Q4D×3): statistically significant anticancer activity | tumor regression [2]: 30-40% | protein levels of phospho-ERK (AU-565): inhibited | Protein levels of p27 (SK-MEL-28): increased | phospho-pRB protein (SK-MEL-28): decrease | protein levels of Cyclin D1 (SK-MEL-28): decreased | protein levels of phospho-ERK (SK-MEL-28; concentration dependent): inhibited | Sensitivity of cell line (RPMI-7951): resistant
